{"source": "paper PMC10285648", "about": "“iTAG an optimized IMiD-induced degron for targeted protein degradation in human and murine cells” (iScience, 2023)", "key": {"[1]": {"tested_on": "cMYC-EGFP-DCD19", "assay": "Flow cytometry of EGFP signal, cMYC-EGFP-DCD19 in HMEC", "format": "cell-based, human", "conditions": "10uM, 4h", "excerpt": "To systematically delineate the optimal DCD/degrader combination for targeted protein degradation, we undertook a matrix approach evaluating all 23 DCD tags against 6 small molecule degraders. […] To control for any potential off-target effects of the IMiD/CeLMOD agents that could indirectly affect the target of interest, we designed controls in which the specific DCD and the EGFP sequences were interspaced by a P2A ribosomal “skipping” sequence,[32] leading to separate translation of the DCD and the target protein (Figure 1A). These constructs were then inserted into a doxycycline-inducible lentiviral vector system and stably expressed in hTERT immortalized human mammary epithelial cells (HMEC), a suitable model to assess the functional consequences of cMYC degradation. cMYC was tagged at the C-terminus end for the initial screening experiments.\nFigure 1 Design and experimental evaluation of the DCD tags (A) Representation of the experimental pipeline used to evaluate the different DCD constructs. […] Median EGFP intensity was measured in each condition using flow cytometry (3 independent experiments, normalized to the control and represented as mean ± SD). […] The protein lysates were probed for cMYC levels using western blotting. […] Target loss was evaluated either by measuring EGFP median intensity using flow cytometry or western blotting for cMYC protein (3 independent experiments, normalized to the control and represented as mean ± SD). […] Target loss was evaluated as in (D) (3 independent experiments, normalized to the control and represented as mean ± SD). […] Protein lysates were collected and probed for cMYC and p21 using western blotting. […] Protein lysates were collected and probed for cMYC and p21 using western blotting. […] These were left out as controls with no test substance.\nFollowing degrader treatment cells were collected and DAPI was added to the cell suspension at 1 μg/mL to allow the exclusion of dead cells. EGFP signal was measured using BD LSR II flow cytometer (BD Biosciences). FlowJo 10 Software (FlowJo) was used for data processing."}, "[2]": {"tested_on": "HMEC, HEK293T, MDA-MB-231, Kelly cells", "assay": "Cell viability assay (CellTiter-Blue)", "format": "cell-based, human", "conditions": "5 days treatment", "method": "By endpoint, CellTiter-Blue reagent (Promega) was added to each well, incubated for 3 h at 37°C and absorbance was measured with a plate reader at 570nm. Average background absorbance value was subtracted from all readings when plotting the viability curve."}, "[3]": {"assay": "Plasma CC220 level in tumor-bearing mice", "format": "in vivo", "conditions": "mouse, 30 mg/kg oral, 24h post administration"}, "[4]": {"tested_on": "Flag-HA-DCD23-RBM39, Flag-HA-DCD23-SMS", "assay": "Quantitative TMT proteomics of CT26 expressing iTAG-tagged RBM39 or SMS", "format": "cell-based, mouse", "conditions": "CT26, 10uM, 8h", "method": "The protein lysates were probed for EGFP using western blotting. […] EGFP signal was then measured using flow cytometry. (3 independent experiments, normalized to the control and represented as mean ± SD). […] Data are plotted as Log2 fold change relative to DMSO versus Log10 of p value.\nWe then tested the degradation of RBM39 (nuclear) and SMS (cytoplasmic) N-terminally tagged with iTAG (DCD23) in CT26 and AT3 ([…]) (Figures 5C–5E).\nSamples for quantitative proteomics were prepared using the SimPLIT workflow.[60] […] Samples were bath sonicated for 5 min, incubated at RT for 45 min and protein concentration was measured with the Bradford Protein Assay (Biorad) according to manufacturer instructions. […]\nLC-MS analysis was performed on the Dionex Ultimate 3000 UHPLC system coupled with the Orbitrap Lumos mass spectrometer (Thermo Scientific). Samples were analyzed with the EASY-Spray C18 capillary column (75 μm × 50 cm, 2 μm) at 50°C. […] MS3 quantification was obtained with higher-energy collisional dissociation (HCD) fragmentation of the top 5 most abundant CID fragments isolated with synchronous precursor selection (SPS). […]\nThe SEQUEST-HT search engine was used to analyze the acquired mass spectra in Proteome Discoverer 2.4 (Thermo Scientific) for protein identification and quantification. […]"}, "[5]": {"tested_on": "RBM39, CDK9, MAPK9, HPRT1, SMS, MAVS (tagged)", "assay": "Western blotting, iTAG versus dTAG at 24h on six targets in SUM159", "format": "cell-based, human", "conditions": "SUM159, 24h", "method": "Subsequently, we evaluated the extent of degradation induced by the two tagging systems. For this purpose, we tested targets present in different subcellular localizations at a longer time point (24h): RBM39 (-nuclear 59.3kDa-), CDK9 (Cyclin-dependent kinase 9 -nuclear 42.7kDa-), MAPK9 (Mitogen-activated protein kinase 9 -nuclear 48.1 kDa-), HPRT1 (Hypoxanthine Phosphoribosyltransferase 1-cytoplasmic 24.5kDa-), SMS (Spermine synthase –cytoplasmic 41.2kDa-), and MAVS (Mitochondrial antiviral-signaling protein -mitochondrial 56.5kDa-) (Figure S7)."}}}
{"smiles": "O=C1CC[C@H](N2Cc3c(OCc4ccc(CN5CCOCC5)cc4)cccc3C2=O)C(=O)N1", "note": "[CC220, Iberdomide]", "values": [{"measurement": "loss of cMYC-EGFP signal", "setting": "[1]", "value": "robust loss of cMYC-EGFP signal"}, {"measurement": "cellular toxicity", "setting": "[2]", "value": "did not induce cellular toxicity"}, {"measurement": "residual plasma level", "setting": "[3]", "value": "nanomolar range"}, {"measurement": "degradation of iTAG (DCD23) tagged RBM39 and SMS", "setting": "[4]", "value": "robust degradation"}, {"measurement": "off-targets in proteome", "setting": "[4]", "value": "without any detected off-targets"}, {"measurement": "degradation compared with dTAG", "setting": "[5]", "value": "more effective degradation of the targets even at low nanomolar CC220 concentrations"}]}
